# Values quoted from earlier work, collected in patent US20240174620A1, “SOLID FORMS OF SAFLUFENACIL-SODIUM AND SAFLUFENACIL-POTASSIUM, PROCESS OF PREPARATION AND USE THEREOF” (ADAMA AGAN LTD., priority 2021, published 2024).
# Where two headings read alike, the source gives them in different places.
# Legend:
# [1] = not given; remark: listed apart in the source
structure (smiles),measurement,setting,value
CC(C)N(C)S(=O)(=O)NC(=O)c1cc(-n2c(=O)cc(C(F)(F)F)n(C)c2=O)c(F)cc1Cl [Saflufenacil],solubility in 1-octanol,"1-octanol, 20° C.",< 0.01 g/100 mL
same,solubility in acetone,"acetone, 20° C.",27.5 g/100 mL
same,solubility in acetonitrile,"acetonitrile, 20° C.",19.4 g/100 mL
same,solubility in ethyl acetate,"ethyl acetate, 20° C.",6.55 g/100 mL
same,solubility in isopropyl alcohol,"isopropyl alcohol, 20° C.",0.25 g/100 mL
same,solubility in methanol,"methanol, 20° C.",2.98 g/100 mL
same,solubility in n-heptane,"n-heptane, 20° C.",< 0.005 g/100 mL
same,solubility in tetrahydrofurane,"tetrahydrofurane, 20° C.",36.2 g/100 mL
same,solubility in toluene,"toluene, 20° C.",0.23 g/100 mL
same,solubility in water,"pH 5, 20° C.",0.0025 g/100 mL
same,solubility in water,"pH 7, 20° C.",0.21 g/100 mL
same,pKa,[1],4.41
